US8946238B2, “Pyrazolo[1,5-A]pyrimidines as antiviral agents” (Gilead Sciences, Inc., priority 2011, dated 2015)

Tested on: RSV strain A2
Assay: RSV antiviral cytoprotection assay in Hep2 cells (RSV-induced cytopathic effect, Cell TiterGlo)
Type: cell-based, Respiratory Syncytial Virus (RSV)
Settings: human respiratory syncytial virus, HEp-2, 0.5 μM compound; RSV A2-infected Hep2 cells; % inhibition calculated from 4-parameter dose response curve, normalized to 0% and 100%; read-out: Percent inhibition at 0.5 μM
Description: Antiviral activity against RSV was determined using an in vitro cytoprotection assay in Hep2 cells. […] The method used was similar to methods previously described in published literature (Chapman et al., Antimicrob Agents Chemother. 2007, 51(9):3346-53.)
Hep2 cells were obtained from ATCC (Manassas, VI) and maintained in MEM media supplemented with 10% fetal bovine serum and penicillin/streptomycin. Cells were passaged twice a week and kept at subconfluent stage. Commercial stock of RSV strain A2 (Advanced Biotechnologies, Columbia, Md.) was titered before compound testing to determine the appropriate dilution of the virus stock that generated desirable cytopathic effect in Hep2 cells.
For antiviral tests, Hep2 cells were seeded into 96-well plates 24 hours before the assay at a density of 3,000 cells/well. On a separate 96 well plate, compounds to be tested were serially diluted in cell culture media. Eight concentrations in 3-fold serial dilution increments were prepared for each tested compound and 100 uL/well of each dilution was transferred in duplicate onto plates with seeded Hep2 cells. Subsequently, appropriate dilution of virus stock previously determined by titration was prepared in cell culture media and 100 uL/well was added to test plates containing cells and serially diluted compounds. Each plate included three wells of infected untreated cells and three wells of uninfected cells that served as 0% and 100% virus inhibition control, respectively. Following the infection with RSV, testing plates were incubated for 4 days in a tissue culture incubator. After the incubation, RSV-induced cytopathic effect was determined using a Cell TiterGlo reagent (Promega, Madison, Wis.) followed by a luminescence read-out. The percentage inhibition was calculated for each tested concentration relative to the 0% and 100% inhibition controls and the EC50 value for each compound was determined by non-linear regression as a concentration inhibiting the RSV-induced cytopathic effect by 50%. Ribavirin (purchased from Sigma, St. Louis, Mo.) was used as a positive control for antiviral activity.
Compounds were also tested for antiviral activity against RSV in Hep2 cells using a 384 well format. Compounds were diluted in DMSO using a 10-step serial dilution in 3-fold increments via automation in 4 adjacent replicates each. Eight compounds were tested per dilution plate. 0.4 uL of diluted compounds were then stamped via Biomek into 384-well plates (Nunc 142761 or 164730 w/lid 264616) containing 20 μL of media (Mediatech Inc. MEM supplemented with Glutamine, 10% FBS and Pen/Strep). DMSO and a suitable positive control compound, such as 80 μM GS-329467 or 10 μM 427346 was used for the 100% and 0% cell killing controls, respectively.
Hep2 cells (1.0×10^5 cells/ml) were prepared as above in batch to at least 40 mls excess of the number of sample plates (8 mls cell mix per plate) and infected with vendor supplied (ABI) RSV strain A2 to arrive at an MOI of 1:1000 (virus:cell #) or 1:3000 (vol virus: cell vol). Immediately after addition of virus, the RSV infected Hep2 cell suspension was added to each stamped 384-well plate at 20 μl per well using a uFlow dispenser, giving a final volume of 40 μL/well, each with 2000 infected cells. The plates were then incubated for 5 days at 37° C. and 5% CO2. Following incubation, the plates were equilibrated to room temperature in a biosafety cabinet hood for 1.5 hrs and 40 μL of Cell-Titer Glo viability reagent (Promega) was added to each well via uFlow. Following a10-20 minute incubation, the plates were read using an EnVision or Victor Luminescence plate reader (Perkin-Elmer). The data was then uploaded and analyzed on the Bioinformatics portal under the RSV Cell Infectivity and 8-plate EC50-Hep2-384 or 8-plate EC50-Hep2-Envision protocols. […]

Structure (SMILES) | inhibition at 0.5 µM
Cc1cn2nc([C@@H]3CCCCN3C(=O)c3cccc4c3OCO4)cc2nc1N1C[C@@H](C#N)[C@@H](O)C1 [Compound 140] | 100%
Cc1cc(C(=O)N2CCCC[C@H]2c2cc3nc(N4CC[C@H](N)C4)c(C)cn3n2)c2[nH]ncc2c1 [Compound 64] | 100%
Cc1ccc(Br)c(C(=O)N2CCCC[C@H]2c2cc3nc(N4CC[C@H](N)C4)c(C)cn3n2)c1 [Compound 90] | 100%
Cc1cn2nc([C@@H]3CCCCN3C(=O)c3ccc4cccc(F)c4n3)cc2nc1N1C[C@@H](C#N)[C@@H](O)C1 [Compound 133] | 56%
Cc1cn2nc([C@@H]3CCCCN3C(=O)c3cc(Cl)ccc3NS(C)(=O)=O)cc2nc1N1C[C@@H](N)C[C@@H]1C(=O)O [Compound 19] | 70%
Cc1ccc(Br)c(C(=O)N2CCCC[C@H]2c2cc3nc(N4C[C@@H](C#N)[C@@H](O)C4)c(C)cn3n2)c1 [Compound 171] | 100%
Cc1cn2nc([C@@H]3CCCCN3C(=O)c3c(C)cccc3C)cc2nc1N1CC[C@H](N)C1 [Compound 88] | 100%
Cc1cn2nc([C@@H]3CCCCN3C(=O)c3ccc4cnccc4n3)cc2nc1N1CC[C@H](N)C1 [Compound 41] | 4%
Cc1cc(C)n2c(C(=O)N3CCCC[C@H]3c3cc4nc(N5CC[C@H](N)C5)c(C)cn4n3)nnc2n1 [Compound 55] | 5%
Cc1cn2nc([C@@H]3CCCCN3C(=O)c3cc(Cl)cc(Cl)n3)cc2nc1N1CC[C@H](N)C1 [Compound 100] | 100%
Cc1cn2nc([C@@H]3CCCCN3C(=O)c3ccc(F)c(F)c3C)cc2nc1N1C[C@@H](C#N)[C@@H](O)C1 [Compound 149] | 100%
Cc1cn2nc([C@@H]3CCCCN3C(=O)c3cc(Cl)ccc3NS(C)(=O)=O)cc2nc1N[C@H]1C[C@@H](N)C1 [Compound 6] | 100%
Cc1cn2nc([C@@H]3CCCCN3C(=O)c3c(F)cccc3Cl)cc2nc1N1CC[C@H](N)C1 [Compound 82] | 100%
Cc1cn2nc([C@@H]3CCCCN3C(=O)c3cccc4cn[nH]c34)cc2nc1N1CC[C@H](N)C1 [Compound 38] | 100%
Cc1cn2nc([C@@H]3CCCCN3C(=O)c3ccc(C#N)cc3F)cc2nc1N1CC[C@H](N)C1 [Compound 32] | 79%
Cc1cn2nc([C@@H]3CCCCN3C(=O)c3cccc4ccnn34)cc2nc1N1C[C@@H](C#N)[C@@H](O)C1 [Compound 135] | 100%
Cc1cn2nc([C@@H]3CCCCN3C(=O)c3cc(F)ccc3Cl)cc2nc1N1C[C@@H](C#N)[C@@H](O)C1 [Compound 186] | 100%
Cc1cn2nc([C@@H]3CCCCN3C(=O)c3csc4c3CCCC4)cc2nc1N1C[C@@H](C#N)[C@@H](O)C1 [Compound 183] | 100%
Cc1ccc(N2CCCS2(=O)=O)c(C(=O)N2CCCC[C@H]2c2cc3nc(N4C[C@@H](C#N)[C@@H](O)C4)c(C)cn3n2)c1 [Compound 197] | 100%
CNC(=O)[C@H]1CN(c2nc3cc([C@@H]4CCCCN4C(=O)c4cc(Cl)ccc4NS(C)(=O)=O)nn3cc2C)CCN1 [Compound 23] | 48%
Cc1cn2nc([C@@H]3CCCCN3C(=O)c3ccccc3[S+](C)[O-])cc2nc1N1CC[C@H](N)C1 (stereo partly drawn) [Compound 103] | 100%
Cc1cn2nc([C@@H]3CCCCN3C(=O)c3cccc(F)c3Cl)cc2nc1N1CC[C@H](N)C1 [Compound 30] | 100%
Cc1cn2nc([C@@H]3CCCCN3C(=O)c3cccc4cn[nH]c34)cc2nc1N1C[C@@H](C#N)[C@@H](O)C1 [Compound 123] | 98%
Cc1cn2nc([C@@H]3CCCCN3C(=O)c3c(F)cccc3F)cc2nc1N1CC[C@H](N)C1 [Compound 79] | 100%

Structure (SMILES) | inhibition at 0.5 µM
Cc1cn2nc([C@@H]3CCCCN3C(=O)c3ccc4cccnc4n3)cc2nc1N1CC[C@H](N)C1 [Compound 50] | 15%
Cc1cn2nc([C@@H]3CCCCN3C(=O)c3csc4ccc(Br)cc34)cc2nc1N1CC[C@H](N)C1 [Compound 99] | 100%
Cc1cn2nc([C@@H]3CCCCN3C(=O)c3cc(Cl)ccc3NS(C)(=O)=O)cc2nc1N1C[C@@H](C#N)[C@@H](OC(=O)[C@H]2CCCN2)C1 [Compound 205] | 100%
COc1ccc(C(=O)N2CCCC[C@H]2c2cc3nc(N4C[C@@H](C#N)[C@@H](O)C4)c(C)cn3n2)c(F)c1 [Compound 126] | 82%
Cc1cn2nc([C@@H]3CCCCN3C(=O)c3cc(I)ccn3)cc2nc1N1C[C@@H](C#N)[C@@H](O)C1 [Compound 161] | 61%
Cc1cn2nc([C@@H]3CCCCN3C(=O)c3ccc(F)cn3)cc2nc1N1CC[C@H](N)C1 [Compound 26] | 84%
Cc1cn2nc([C@@H]3CCCCN3C(=O)c3nccc4ccccc34)cc2nc1N1C[C@@H](C#N)[C@@H](O)C1 [Compound 163] | 100%
Cc1cn2nc([C@@H]3CCCCN3C(=O)c3ccc4ncccc4c3)cc2nc1N1CC[C@H](N)C1 [Compound 68] | 37%
Cc1cn2nc([C@@H]3CCCCN3C(=O)c3cccc4cc[nH]c34)cc2nc1N1C[C@@H](C#N)[C@@H](O)C1 [Compound 151] | 100%
COc1ccc(C(C)(C)C)cc1C(=O)N1CCCC[C@H]1c1cc2nc(N3CC[C@H](N)C3)c(C)cn2n1 [Compound 34] | 13%
Cc1cn2nc([C@@H]3CCCCN3C(=O)c3cc(Cl)ccc3NS(C)(=O)=O)cc2nc1NC(C)CN (stereo partly drawn) [Compound 5] | 100%
Cc1cn2nc([C@@H]3CCCCN3C(=O)c3[nH]c4c(C)ccc(C)c4c3C)cc2nc1N1CC[C@H](N)C1 [Compound 53] | 25%
Cc1cn2nc([C@@H]3CCCCN3C(=O)c3ccsc3)cc2nc1N1C[C@@H](C#N)[C@@H](O)C1 [Compound 181] | 83%
COc1cc2c(cc1C(=O)N1CCCC[C@H]1c1cc3nc(N4C[C@@H](C#N)[C@@H](O)C4)c(C)cn3n1)CCC2 [Compound 132] | 97%
Cc1cn2nc([C@@H]3CCCCN3C(=O)c3cc(F)cc4c3OCOC4)cc2nc1N1CC[C@H](N)C1 [Compound 48] | 100%
Cc1cn2nc([C@@H]3CCCCN3C(=O)c3c(F)ccc(C)c3F)cc2nc1N1C[C@@H](C#N)[C@@H](O)C1 [Compound 124] | 100%
Cc1cn2nc([C@@H]3CCCCN3C(=O)c3cccc(C(F)(F)F)n3)cc2nc1N1C[C@@H](C#N)[C@@H](O)C1 [Compound 148] | 77%
Cc1cn2nc([C@@H]3CCCCN3C(=O)c3cccc(F)c3C(F)(F)F)cc2nc1N1CC[C@H](N)C1 [Compound 44] | 100%
Cc1cn2nc([C@@H]3CCCCN3C(=O)c3cc(C(F)(F)F)ccn3)cc2nc1N1C[C@@H](C#N)[C@@H](O)C1 [Compound 168] | 44%
Cc1cn2nc([C@@H]3CCCCN3C(=O)c3c(F)cccc3F)cc2nc1N1C[C@@H](C#N)[C@@H](O)C1 [Compound 157] | 98%
Cc1cn2nc([C@@H]3CCCCN3C(=O)c3cc(Cl)ccc3NS(C)(=O)=O)cc2nc1N1C[C@@H](C#N)[C@@H](OP(=O)(O)O)C1 [Compound 192] | 100%
Cc1cn2nc([C@@H]3CCCCN3C(=O)c3cc4c(OC(F)F)cccc4[nH]3)cc2nc1N1CC[C@H](N)C1 [Compound 57] | 13%
Cc1cn2nc([C@@H]3CCCCN3C(=O)c3ccc(C)c(F)c3F)cc2nc1N1CC[C@H](N)C1 [Compound 33] | 99%
Cc1cc(F)ccc1C(=O)N1CCCC[C@H]1c1cc2nc(N3C[C@@H](C#N)[C@@H](O)C3)c(C)cn2n1 [Compound 155] | 100%
